Read-outs that look alike come from different tables or passages of the source.
How the values were obtained:
[1] = system: Renal Cancer subpanel; assay: NCI-60 screen, subpanel; settings: Homo sapiens; for IC (TGI): 48 h, read-out: TGI MG_MID; for GI50: read-out: GI50 MG_MID; for CC50: read-out: LC50 MG_MID
[2] = system: CNS cancer subpanel; assay: NCI-60 screen, subpanel; settings: Homo sapiens; for IC (TGI): 48 h, read-out: TGI MG_MID; for GI50: read-out: GI50 MG_MID; for CC50: read-out: LC50 MG_MID
[3] = system: MALME-3M (Melanoma); assay: NCI-60 screen (SRB, 48 h); settings: Homo sapiens; for IC (TGI): 48 h, read-out: TGI; for CC50: read-out: LC50
[4] = system: MCF7 (Breast cancer); assay: NCI-60 screen (SRB, 48 h); settings: Homo sapiens; for GI50: MCF7; for IC (TGI): MCF7, 48 h, read-out: TGI; for CC50: MCF7, read-out: LC50
[5] = system: EKVX (NSC lung cancer); assay: NCI-60 screen (SRB, 48 h); settings: Homo sapiens; for IC (TGI): 48 h, read-out: TGI; for CC50: read-out: LC50
[6] = system: ACHN (Renal cancer); assay: NCI-60 screen (SRB, 48 h); settings: Homo sapiens; for IC (TGI): 48 h, read-out: TGI; for CC50: read-out: LC50
[7] = system: HT29 (colorectal carcinoma); assay: SRB cytotoxicity assay, 72 h; type: cell-based, human; settings: HT29, 72 h, cut-off 30 µM
Method: (§1) The cytotoxicity of compounds 1–20 was evaluated by means of a colorimetric sulforhodamine B (SRB) assay. For all compounds, the EC50 values were determined for the human tumor cell lines A375 (malignant melanoma), HT29 (colorectal carcinoma), MCF-7 (breast carcinoma), A2780 (ovarian carcinoma), FaDu (hypopharyngeal carcinoma), and NIH 3T3 (non-malignant mouse fibroblasts).
(§2) In short, exponentially growing cells were seeded into 96-well plates on day 0 at the appropriate cell densities to prevent confluence of the cells during the period of experiment. After 24 h, the cells were treated with serial dilutions of the compounds (0–30 µM) for 72 h. The final concentration of DMSO never exceeded 0.5%, which was non-toxic to the cells. After a 72 h treatment, the supernatant medium from the 96-well plates was discarded, and the cells were fixed with 10% TCA. For a thorough fixation, the plates were allowed to rest at 4 °C. After fixation, the cells were washed in a strip washer. The washing was done four times with water using alternate dispensing and aspiration procedures. The plates were then dyed with 100 µL of 0.4% SRB for about 20 min. After dying, the plates were washed with 1% acetic acid to remove the excess of the dye and allowed to air-dry overnight. Tris base solution (200 µL, 10 mM) was added to each well and absorbance was measured at λ = 570 nm (using a 96 well plate reader, Tecan Spectra, Crailsheim, Germany). The percentages of surviving cells relative to untreated controls were determined.

[8] = system: MCF-7 (breast carcinoma); assay: SRB cytotoxicity assay, 72 h; type: cell-based, human; settings: MCF-7, 72 h, cut-off 30 µM
Method: as §1, §2

[9] = system: A375 (malignant melanoma); assay: SRB cytotoxicity assay, 72 h; type: cell-based, human; settings: A375, 72 h, cut-off 30 µM
Method: as §1, §2

[10] = system: A2780 (ovarian carcinoma); assay: SRB cytotoxicity assay, 72 h; type: cell-based, human; settings: A2780, 72 h, cut-off 30 µM
Method: as §1, §2

[11] = system: FaDu (hypopharyngeal carcinoma); assay: SRB cytotoxicity assay, 72 h; type: cell-based, human; settings: cut-off 30 µM
Method: as §1, §2

[12] = system: SW-620 (Colon cancer); assay: NCI-60 screen (SRB, 48 h); settings: Homo sapiens; for GI50: SW-620; for IC (TGI): SW-620, 48 h, read-out: TGI; for CC50: SW-620, read-out: LC50
[13] = system: T-47D (Breast cancer); assay: NCI-60 screen (SRB, 48 h); settings: Homo sapiens, T47D; for IC (TGI): 48 h, read-out: TGI; for CC50: read-out: LC50
[14] = system: A498 (Renal cancer); assay: NCI-60 screen (SRB, 48 h); settings: Homo sapiens; for GI50: A498; for IC (TGI): A498, 48 h, read-out: TGI; for CC50: A498, read-out: LC50
[15] = system: OVCAR-4 (Ovarian cancer); assay: NCI-60 screen (SRB, 48 h); type: cell-based; settings: Homo sapiens; for IC (TGI): OVCAR-4, 48 h; for GI50: read-out: GI50
[16] = system: SF-295 (CNS cancer); assay: NCI-60 screen (SRB, 48 h); settings: Homo sapiens; for GI50: SF-295; for IC (TGI): SF-295, 48 h, read-out: TGI; for CC50: SF-295, read-out: LC50
[17] = system: NCI-H522 (NSC lung cancer); assay: NCI-60 screen (SRB, 48 h); settings: Homo sapiens; for GI50: NCI-H522; for IC (TGI): NCI-H522, 48 h, read-out: TGI
[18] = system: NCI-H460 (NSC lung cancer); assay: NCI-60 screen (SRB, 48 h); settings: Homo sapiens; for GI50: NCI-H460; for IC (TGI): NCI-H460, 48 h, read-out: TGI; for CC50: NCI-H460, read-out: LC50
[19] = system: TK-10 (Renal cancer); assay: NCI-60 screen (SRB, 48 h); settings: Homo sapiens; for GI50: TK-10; for IC (TGI): TK-10, 48 h, read-out: TGI; for CC50: TK-10, read-out: LC50
[20] = system: SK-MEL-5 (Melanoma); assay: NCI-60 screen (SRB, 48 h); settings: for GI50 / IC (TGI) / CC50: Homo sapiens; for GI50: SK-MEL-5; for IC (TGI): SK-MEL-5, 48 h, read-out: TGI; for CC50: SK-MEL-5, read-out: LC50
[21] = system: SNB-19 (CNS cancer); assay: NCI-60 screen (SRB, 48 h); settings: Homo sapiens; for GI50: SNB-19; for IC (TGI): SNB-19, 48 h, read-out: TGI; for CC50: SNB-19, read-out: LC50
[22] = system: NCI-H226 (NSC lung cancer); assay: NCI-60 screen (SRB, 48 h); settings: Homo sapiens; for GI50: NCI-H226; for IC (TGI): NCI-H226, 48 h, read-out: TGI; for CC50: NCI-H226, read-out: LC50
[23] = system: HCC-2998 (Colon cancer); assay: NCI-60 screen (SRB, 48 h); settings: Homo sapiens; for GI50: HCC 2998; for IC (TGI): HCC 2998, 48 h, read-out: TGI; for CC50: HCC 2998, read-out: LC50
[24] = system: KM12 (Colon cancer); assay: NCI-60 screen (SRB, 48 h); settings: Homo sapiens; for GI50: KM12; for IC (TGI): KM12, 48 h, read-out: TGI; for CC50: KM12, read-out: LC50

C=C(C)C1CCC2(CO)CCC3(C)C(CCC4C5(C)CCCNC(C)(C)C5CCC43C)C12 (stereo not drawn) [Compound 1, Azepanobetulin]
IC (TGI) [1]: 3.43 µM | GI50 [1]: 1.71 µM | CC50 [1]: 9.33 µM | IC (TGI) [2]: 3.15 µM | GI50 [2]: 1.65 µM | CC50 [2]: 5.98 µM | GI50 [3]: 1.5 µM | IC (TGI) [3]: 3.05 µM | CC50 [3]: 6.18 µM | GI50 [4]: 1.29 µM | IC (TGI) [4]: 2.77 µM | CC50 [4]: 5.94 µM | GI50 [5]: 1.55 µM | IC (TGI) [5]: 3.03 µM | CC50 [5]: 5.92 µM | GI50 [6]: 1.7 µM | IC (TGI) [6]: 3.09 µM | CC50 [6]: 5.61 µM | EC50 ([7]; Homo sapiens, HT-29, read-out: EC50): 1.63 ± 0.3 µM | EC50 ([8]; Homo sapiens, MCF7, read-out: EC50): 1.91 ± 0.1 µM | EC50 ([9]; Homo sapiens, A-375, 72 h, read-out: EC50): 2.52 ± 0.2 µM | EC50 ([10]; Homo sapiens, read-out: EC50): 2.39 ± 0.2 µM | EC50 ([11]; Homo sapiens, read-out: EC50): 2.32 ± 0.3 µM | GI50 [12]: 1.81 µM | IC (TGI) [12]: 3.41 µM | CC50 [12]: 6.44 µM | GI50 [13]: 1.73 µM | IC (TGI) [13]: 3.71 µM | CC50 [13]: 7.96 µM | GI50 [14]: 2.17 µM | IC (TGI) [14]: 5.63 µM | CC50 [14]: 33 µM | IC (TGI) [15]: 2.81 µM | GI50 ([15]; OVCAR-4): 1.45 µM | GI50 [16]: 1.66 µM | IC (TGI) [16]: 3.13 µM | CC50 [16]: 5.9 µM | GI50 [17]: 1.65 µM | IC (TGI) [17]: 3.42 µM | GI50 [18]: 1.63 µM | IC (TGI) [18]: 3.21 µM | CC50 [18]: 6.3 µM | GI50 [19]: 1.76 µM | IC (TGI) [19]: 3.5 µM | CC50 [19]: 6.96 µM | GI50 [20]: 1.38 µM | IC (TGI) [20]: 2.7 µM | CC50 [20]: 5.28 µM | Growth % of the Most Sensitive Cell Lines ([20]; SK-MEL-5, 1 dose 10 µM): −82.49% | GI50 [21]: 1.75 µM | IC (TGI) [21]: 3.2 µM | CC50 [21]: 5.86 µM | GI50 [22]: 1.98 µM | IC (TGI) [22]: 4.09 µM | CC50 [22]: 8.43 µM | GI50 [23]: 1.51 µM | IC (TGI) [23]: 2.93 µM | CC50 [23]: 5.68 µM | GI50 [24]: 1.73 µM | IC (TGI) [24]: 3.24 µM | CC50 [24]: 6.09 µM

CC1(C)CC[C@]2(CO)CC[C@]3(C)C(=CC[C@@H]4[C@@]5(C)CCCNC(C)(C)[C@@H]5CC[C@]43C)[C@@H]2C1 [Compound 3, azepanoerythrodiol]
IC (TGI) [1]: 17.4 µM | GI50 [1]: 5.94 µM | CC50 [1]: 49.7 µM | IC (TGI) [2]: 4.13 µM | GI50 [2]: 6.53 µM | CC50 [2]: 40 µM | GI50 [3]: 2.02 µM | IC (TGI) [3]: 3.56 µM | CC50 [3]: 6.27 µM | GI50 [4]: 2.16 µM | IC (TGI) [4]: 5.54 µM | CC50 [4]: 22.7 µM | GI50 [5]: 4.04 µM | IC (TGI) [5]: 20.1 µM | CC50 [5]: > 100 µM | GI50 [6]: 3.44 µM | IC (TGI) [6]: 11.5 µM | CC50 [6]: 38.3 µM | EC50 [7]: n.s. | EC50 [8]: n.s. | EC50 [9]: n.s. | EC50 [10]: n.s. | EC50 [11]: n.s. | GI50 [12]: 1.91 µM | IC (TGI) [12]: 4 µM | CC50 [12]: 8.35 µM | GI50 [13]: 4.08 µM | IC (TGI) [13]: 16.3 µM | CC50 [13]: 48.6 µM | GI50 [14]: 16.7 µM | IC (TGI) [14]: 38.1 µM | CC50 [14]: 86.7 µM | IC (TGI) [15]: 17.5 µM | GI50 ([15]; OVCAR-4): 4.48 µM | CC50 ([15]; OVCAR-4, read-out: LC50 (the source's name)): 45.2 µM | GI50 [16]: 1.77 µM | IC (TGI) [16]: 3.62 µM | CC50 [16]: 7.4 µM | GI50 [17]: 2.04 µM | IC (TGI) [17]: 4.19 µM | CC50 ([17]; NCI-H522, read-out: LC50): 8.59 µM | GI50 [18]: 1.92 µM | IC (TGI) [18]: 3.8 µM | CC50 [18]: 7.56 µM | GI50 [19]: 4.64 µM | IC (TGI) [19]: 16.7 µM | CC50 [19]: 49.9 µM | GI50 [20]: 1.68 µM | IC (TGI) [20]: 3.14 µM | CC50 [20]: 5.86 µM | GI50 [21]: 11.7 µM | IC (TGI) [21]: 2.61 µM | CC50 [21]: 58.1 µM | GI50 [22]: 1.13 µM | IC (TGI) [22]: 28.5 µM | CC50 [22]: 71.8 µM | GI50 [23]: 1.89 µM | IC (TGI) [23]: 3.81 µM | CC50 [23]: 7.69 µM | GI50 [24]: 2.07 µM | IC (TGI) [24]: 4.26 µM | CC50 [24]: 8.78 µM

Source: publication PMC7914897, “Cytotoxic Potential of a-Azepano- and 3-Amino-3,4-SeCo-Triterpenoids” (International Journal of Molecular Sciences, 2021)
